Assay results from PubChem BioAssay AID330 (DTP/NCI, 2004).
“And” between values parts separate entries of the source, which are not always exact repeats. Identical values can stand only once. Toxic doses and inconclusive results are not listed.

Tested on: P388 leukemia ip, CD2F1 mice, survival T/C
Assay: NCI In Vivo Anticancer Drug Screen. Data for tumor model P388 Leukemia (intraperitoneal) in CD2F1 (CDF1) mice
Settings: endpoint: median survival time, higher = longer survival
Summary of the method: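 Mice carrying the transplanted tumor received test compound or vehicle. Survival was recorded in each group, and the value is the treated-group measurement divided by that of the vehicle-treated control group.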

[1] = dose: 120.0 mg/kg/injection, schedule: Q01DX005 (ip), vehicle: saline with Tween-80
[2] = dose: 240.0 mg/kg/injection, schedule: Q01DX005 (ip), vehicle: saline with Tween-80
[3] = dose: 50.0 mg/kg/injection, schedule: Q01DX005 (ip), vehicle: saline with Tween-80
[4] = dose: 100.0 mg/kg/injection, schedule: Q01DX005 (ip), vehicle: saline with Tween-80
[5] = dose: 200.0 mg/kg/injection, schedule: Q01DX005 (ip), vehicle: saline with Tween-80
[6] = dose: 50.0 mg/kg/injection, schedule: Q01DX009 (ip), vehicle: saline
[7] = dose: 100.0 mg/kg/injection, schedule: Q01DX009 (ip), vehicle: saline
[8] = dose: 50.0 mg/kg/injection, schedule: Q01DX005 (ip), vehicle: Klucel (hydroxypropylcellulose) (HPC)
[9] = dose: 100.0 mg/kg/injection, schedule: Q01DX005 (ip), vehicle: Klucel (hydroxypropylcellulose) (HPC)
[10] = dose: 200.0 mg/kg/injection, schedule: Q01DX005 (ip), vehicle: Klucel (hydroxypropylcellulose) (HPC)
[11] = dose: 60.0 mg/kg/injection, schedule: Q01DX005 (ip), vehicle: saline with Tween-80
[12] = dose: 60.0 mg/kg/injection, schedule: Q01DX005 (ip), vehicle: Klucel (hydroxypropylcellulose) (HPC)
[13] = dose: 120.0 mg/kg/injection, schedule: Q01DX005 (ip), vehicle: Klucel (hydroxypropylcellulose) (HPC)
[14] = dose: 50.0 mg/kg/injection, schedule: Q01DX009 (ip), vehicle: saline with Tween-80
[15] = dose: 100.0 mg/kg/injection, schedule: Q01DX009 (ip), vehicle: saline with Tween-80
[16] = dose: 25.0 mg/kg/injection, schedule: Q01DX009 (ip), vehicle: saline with Tween-80

Structure (SMILES): O=C(CC(O)(C(F)(F)F)C(F)(F)F)c1ccc(C(=O)CC(O)(C(F)(F)F)C(F)(F)F)cc1
- T/C (dose: 12.5 mg/kg/injection, schedule: Q01DX009 (ip), vehicle: other): 100 % of control
- T/C (dose: 25.0 mg/kg/injection, schedule: Q01DX009 (ip), vehicle: other): 100 % of control
- T/C (dose: 50.0 mg/kg/injection, schedule: Q01DX009 (ip), vehicle: other): 100 % of control
- T/C (dose: 66.0 mg/kg/injection, schedule: Q04DX003 (ip), vehicle: other): 95 % of control
- T/C (dose: 100.0 mg/kg/injection, schedule: Q04DX003 (ip), vehicle: other): 95 % of control
- T/C (dose: 150.0 mg/kg/injection, schedule: Q04DX003 (ip), vehicle: other): 100 % of control

Structure (SMILES): Cn1c(=S)[nH]c2sc3c(c2c1=O)CCCC3
- T/C [1]: 97 % of control
- T/C [2]: 96 % of control

Structure (SMILES): C=C1C[C@](OC)([C@H](O)C(=O)N[C@@H](OC)[C@@H]2C[C@@H](O)C(C)(C)[C@@H](C[C@@H](COC)OC)O2)O[C@H](C)[C@@H]1C
- T/C (dose: 6.2 micrograms/kg/injection, schedule: Q01DX005 (ip), vehicle: Klucel (hydroxypropylcellulose) (HPC)): 153 % of control
- T/C (dose: 12.5 micrograms/kg/injection, schedule: Q01DX005 (ip), vehicle: Klucel (hydroxypropylcellulose) (HPC)): 152 % of control
- T/C (dose: 25.0 micrograms/kg/injection, schedule: Q01DX005 (ip), vehicle: Klucel (hydroxypropylcellulose) (HPC)): 161 % of control and 162 % of control
- T/C (dose: 50.0 micrograms/kg/injection, schedule: Q01DX005 (ip), vehicle: Klucel (hydroxypropylcellulose) (HPC)): 152 % of control

Structure (SMILES): CSc1nc(-c2cccs2)cc(C(F)(F)F)n1
- T/C (dose: 50.0 mg/kg/injection, schedule: Q04DX003 (ip), vehicle: gum acacia): 105 % of control
- T/C (dose: 100.0 mg/kg/injection, schedule: Q04DX003 (ip), vehicle: gum acacia): 104 % of control
- T/C (dose: 200.0 mg/kg/injection, schedule: Q04DX003 (ip), vehicle: gum acacia): 109 % of control
- T/C (dose: 400.0 mg/kg/injection, schedule: Q04DX003 (ip), vehicle: gum acacia): 96 % of control

Structure (SMILES): N#Cc1cc([N+](=O)[O-])c(Cl)c([N+](=O)[O-])c1Cl
- T/C (dose: 3.13 mg/kg/injection, schedule: Q04DX003 (ip), vehicle: saline with Tween-80): 100 % of control
- T/C (dose: 6.25 mg/kg/injection, schedule: Q04DX003 (ip), vehicle: saline with Tween-80): 100 % of control
- T/C (dose: 12.5 mg/kg/injection, schedule: Q04DX003 (ip), vehicle: saline with Tween-80): 100 % of control

Structure (SMILES): CCn1c2ccccc2c2cc(NC(=O)N3CCCCC3)ccc21
- T/C [3]: 95 % of control
- T/C [4]: 95 % of control
- T/C [5]: 90 % of control

Structure (SMILES): CC(C)NCC(O)COc1ccccc1C1CC1 (stereo not given)
- T/C [6]: 106 % of control
- T/C [7]: 104 % of control

Structure (SMILES): Nc1ccc(C(=O)Nc2ccc(S(=O)(=O)O)c3cccc(O)c23)cc1
- T/C [8]: 109 % of control
- T/C [9]: 111 % of control
- T/C [10]: 109 % of control

Structure (SMILES): C[S+](C)CCCNC(=O)c1csc(-c2csc(-c3cscn3)n2)n1
- T/C (dose: 6.25 mg/kg/injection, schedule: Q01DX005 (ip), vehicle: saline): 104 % of control
- T/C (dose: 12.5 mg/kg/injection, schedule: Q01DX005 (ip), vehicle: saline): 96 % of control

Structure (SMILES): C=C(C)OC1NC(=O)Oc2ccccc21 (stereo not given)
- T/C [11]: 98 % of control
- T/C [1]: 109 % of control
- T/C [2]: 100 % of control

Structure (SMILES): CCNc1ccc(C(=O)c2cccc(N)c2)cc1N
- T/C [11]: 96 % of control
- T/C [1]: 96 % of control
- T/C [2]: 89 % of control

Structure (SMILES): CC(C)CN(CC(C)C)c1nn[nH]n1
- T/C [3]: 103 % of control
- T/C [4]: 100 % of control
- T/C [5]: 103 % of control

Structure (SMILES): CSc1nc(C)c(Br)c(N2CC2)n1
- T/C (dose: 3.12 mg/kg/injection, schedule: Q01DX005 (ip), vehicle: Klucel (hydroxypropylcellulose) (HPC)): 89 % of control
- T/C (dose: 6.25 mg/kg/injection, schedule: Q01DX005 (ip), vehicle: Klucel (hydroxypropylcellulose) (HPC)): 110 % of control and 94 % of control
- T/C (dose: 12.5 mg/kg/injection, schedule: Q01DX005 (ip), vehicle: Klucel (hydroxypropylcellulose) (HPC)): 99 % of control and 110 % of control
- T/C (dose: 25.0 mg/kg/injection, schedule: Q01DX005 (ip), vehicle: Klucel (hydroxypropylcellulose) (HPC)): 120 % of control and 89 % of control and 97 % of control
- T/C [8]: 101 % of control and 102 % of control
- T/C [9]: 105 % of control

Structure (SMILES): C/C(CC(=O)c1ccccc1)=C1\C(=O)NN(c2ccccc2)C1=O
- T/C [11]: 101 % of control
- T/C [1]: 101 % of control
- T/C [2]: 93 % of control

Structure (SMILES): O=C1OC2(c3ccc(O)cc3Oc3cc(O)ccc32)C2C3C=CC(C3)C12 (stereo not given)
- T/C [12]: 100 % of control
- T/C [13]: 104 % of control
- T/C (dose: 240.0 mg/kg/injection, schedule: Q01DX005 (ip), vehicle: Klucel (hydroxypropylcellulose) (HPC)): 100 % of control

Structure (SMILES): Nc1cc2nc3ccccc3sc-2cc1=O
- T/C [14]: 112 % of control
- T/C [15]: 111 % of control
- T/C (dose: 200.0 mg/kg/injection, schedule: Q01DX009 (ip), vehicle: saline with Tween-80): 113 % of control
- T/C (dose: 400.0 mg/kg/injection, schedule: Q01DX009 (ip), vehicle: saline with Tween-80): 89 % of control

Structure (SMILES): Cn1cc2c(cc1=O)-c1nc3ccccc3c3ccnc(c13)C2=O
- T/C (dose: 1.25 mg/kg/injection, schedule: Q01DX005 (ip), vehicle: other): 96 % of control
- T/C (dose: 2.5 mg/kg/injection, schedule: Q01DX005 (ip), vehicle: other): 97 % of control
- T/C (dose: 5.0 mg/kg/injection, schedule: Q01DX005 (ip), vehicle: other): 92 % of control
- T/C (dose: 10.0 mg/kg/injection, schedule: Q01DX005 (ip), vehicle: other): 90 % of control

Structure (SMILES): OCc1cnccc1Cl
- T/C (dose: 60.0 mg/kg/injection, schedule: Q01DX005 (ip), vehicle: saline): 95 % of control
- T/C (dose: 120.0 mg/kg/injection, schedule: Q01DX005 (ip), vehicle: saline): 100 % of control

Structure (SMILES): CC(=O)C1CCC2=C(C1)C(=O)c1cc3c(cc1C2=O)C1(c2ccccc2)OC3(c2ccccc2)C2C(=O)N(c3ccccc3)C(=O)C21 (stereo not given)
- T/C [12]: 90 % of control
- T/C [13]: 88 % of control

Structure (SMILES): COc1ccc(Cc2cc3c(cc2OCC(=O)Nc2nccs2)OCO3)cc1
- T/C [8]: 88 % of control
- T/C [9]: 97 % of control
- T/C [10]: 97 % of control

Structure (SMILES): CN(C)CCN(C)C(=N)N
- T/C (dose: 25.0 mg/kg/injection, schedule: Q01DX009 (ip), vehicle: saline): 100 % of control and 105 % of control
- T/C [6]: 104 % of control
- T/C [7]: 91 % of control and 96 % of control
- T/C (dose: 200.0 mg/kg/injection, schedule: Q01DX009 (ip), vehicle: saline): 88 % of control and 94 % of control

Structure (SMILES): COC1=C(OC)C(=O)C(Sc2ccc3ccccc3c2)=CC1=O
- T/C (dose: 6.25 mg/kg/injection, schedule: Q01DX009 (ip), vehicle: saline with Tween-80): 103 % of control and 104 % of control
- T/C (dose: 12.5 mg/kg/injection, schedule: Q01DX009 (ip), vehicle: saline with Tween-80): 104 % of control
- T/C [16]: 104 % of control and 119 % of control
- T/C [14]: 100 % of control and 111 % of control
- T/C [15]: 100 % of control

Structure (SMILES): O=C1C(Br)=Cc2cccc3cccc1c23
- T/C [16]: 100 % of control
- T/C [14]: 100 % of control
- T/C [15]: 100 % of control

Structure (SMILES): CN(C)C(=O)On1cc(Cl)cc1C#N
- T/C (dose: 6.25 mg/kg/injection, schedule: Q04DX003 (ip), vehicle: Klucel (hydroxypropylcellulose) (HPC)): 102 % of control
- T/C (dose: 12.5 mg/kg/injection, schedule: Q04DX003 (ip), vehicle: Klucel (hydroxypropylcellulose) (HPC)): 98 % of control
- T/C (dose: 25.0 mg/kg/injection, schedule: Q04DX003 (ip), vehicle: Klucel (hydroxypropylcellulose) (HPC)): 100 % of control
- T/C (dose: 75.0 mg/kg/injection, schedule: Q04DX003 (ip), vehicle: Klucel (hydroxypropylcellulose) (HPC)): 98 % of control

Structure (SMILES): C=C(C)CNCCN
- T/C [3]: 112 % of control
- T/C [4]: 112 % of control
- T/C [5]: 112 % of control

Structure (SMILES): CCc1nc(N)nc(N)c1-c1ccc(NCCN)c([N+](=O)[O-])c1
- T/C [11]: 113 % of control
- T/C [1]: 116 % of control
- T/C [2]: 116 % of control

Structure (SMILES): COC(=O)c1nc(N)nc(C(=O)OC)c1C(=O)c1ccc(F)cc1
- T/C [12]: 101 % of control
- T/C [13]: 102 % of control

Structure (SMILES): OCc1c(-c2ccccc2)c(-c2ccccc2)c2n1CCC2
- T/C [3]: 103 % of control
- T/C [4]: 92 % of control
- T/C [5]: 99 % of control

Structure (SMILES): CC1CCCN2C(=O)CN(C3CCCCC3)CC(=O)N12 (stereo not given)
- T/C [3]: 100 % of control
- T/C [4]: 100 % of control
- T/C [5]: 100 % of control
